pKd: −log10 of the molar value.
Experiment: Glucose affinity of macrocycles by fluorescence titration
Assay type: binding
Conditions: pH 7.4, 10 mM phosphate buffer
Experimental: The optic properties (fluorescence) of the given macrocycle changes between the unbound state, and the glucose-bound state. Titrating the macrocycle with glucose in the relevant glucose concentration range, and measuring the changes in fluorescence of the system can thus give binding curves for binding to glucose, which can be used to determine the glucose binding constant, Ka (and the displacement constant, Kd).
All solutions were maintained at pH 7.4 using 10 mM Phosphate buffer solution. The titration was performed using a Horiba Scientific Duetta fluorescence spectrometer with an excitation wavelength of 310 nm and monitoring emission from 320-550 nm. The excitation and emission slit width/band widths were set to 5 nm. All points were acquired using a 0.5 second integration time and 5 accumulations.
2 mg of compound 6d (Mw=3540 g/mol) was dissolved in […] of ultrapure H2O (pH 7.4, 10 mM PB). The purity of Compound 6d was previously assayed by 1H NMR spectroscopy using a known concentration of DMF in D2O as an internal standard. The purity was calibrated at 80% (40 μM). This was then diluted by a four-fold to give a 10 μM solution of Compound 6d.
D-glucose (180.16 mg) was dissolved in 1 mL 10 mM PB and allowed to stand overnight to allow for equilibration of the a and 13 anomers. This was sequentially diluted to give a 20 mM stock solution of D-glucose. 250 μL of this solution was combined with 250 μL Compound 6d stock solution to give a 10 mM D-glucose/5 μM Compound 6d.
In a 3 mL cuvette, 1500 μL of Solution 1 was diluted with 1500 μL of 10 mM phosphate buffer to give a 5 μM solution. This was titrated with Solution 2. For each addition of titrant solution (Solution 2), the equivalent volume was removed from the cuvette prior to addition to keep the cell volume constant (3000 μL). Each addition was stirred for 1 minute then stirring stopped to allow 1 minute for the sample to equilibrate before acquisition. Additions (in μL): 0, 10, 10, 10, 10, 10, 20, 20, 50, 100, 100.

CCc1c2c(CC)c3c(CC)c1CNC(=O)Nc1ccc(C(=O)NC(CCC(=O)O)(CCC(=O)O)CCC(=O)O)cc1NC(=O)NCc1c(CC)c(c(CC)c(c1CC)CNC(=O)Nc1cc(C(=O)NC(CCC(=O)O)(CCC(=O)O)CCC(=O)O)ccc1NC(=O)NC3)CNC(=O)Nc1cc(C(=O)NCCOCCOCCOCCOCCN=[N+]=[N-])ccc1NC(=O)NC2 [compound 24, G1 Macrocycle PEG5 Azide]
pKd (measured similarly to compound 6d): 3.88

CCc1c2c(CC)c3c(CC)c1CNC(=O)Nc1ccc(C(=O)NC(CCC(=O)NC(CCC(=O)O)(CCC(=O)O)CCC(=O)O)(CCC(=O)NC(CCC(=O)O)(CCC(=O)O)CCC(=O)O)CCC(=O)NC(CCC(=O)O)(CCC(=O)O)CCC(=O)O)cc1NC(=O)NCc1c(CC)c(c(CC)c(c1CC)CNC(=O)Nc1cc(C(=O)NC(CCC(=O)NC(CCC(=O)O)(CCC(=O)O)CCC(=O)O)(CCC(=O)NC(CCC(=O)O)(CCC(=O)O)CCC(=O)O)CCC(=O)NC(CCC(=O)O)(CCC(=O)O)CCC(=O)O)ccc1NC(=O)NC3)CNC(=O)Nc1cc(C(=O)NCCOCCOCCOCCN=[N+]=[N-])ccc1NC(=O)NC2 [compound 6d]
Kd (glucose), calculated as 1/Ka (D-glucose titration): 68 µM
Calculated Ka (glucose binding constant, 1:1 binding model) (D-glucose titration, 5 μM macrocycle, excitation 310 nm): 14751.48 ± 637.3 M⁻¹

— patent publication US11541122B2, “Glucose sensitive insulins and uses thereof” (Ziylo Limited, priority 2018, dated 2023)
